Source: patent US20240083888A1, “SMALL MOLECULE INHIBITOR FOR CATHEPSIN C AND MEDICINAL USE THEREOF” (REISTONE BIOPHARMA COMPANY LIMITED, priority 2020, published 2024)
Where a name gives a salt, the structure may show the parent alone. Read-outs that look alike come from different tables or passages of the source.

Target: rhCatC (Homo sapiens (Human), UniProt P53634)
Test: In vitro enzyme activity experiment of rhCatC (AMC fluorescence assay)
Assay type: biochemical
Protocol: The in vitro inhibitory effect of compounds and positive control on rhCatC enzyme activity was evaluated by AMC fluorescence assay. rhCatC can catalyze the reaction of substrate peptide H-Gly-Arg-AMC, and release AMC to generate fluorescence. […] The compound was diluted with DMSO to a 384-well echo plate at a concentration of 100× of the highest concentration at the beginning of the experiment. 0.2 μL of the diluted compound was pipetted to a black-bottomed 384-well reaction plate for later use. The negative control well was DMSO. • 2) Activation of rhCatC: RhCatC and rhCatL were added to the activation buffer to obtain a final concentration of rhCatC of 100 μg/mL and a final concentration of rhCatL of 20 μg/mL, and incubated at room temperature for 1 hour. • 3) Enzyme activity reaction: Activated rhCatC was diluted to 0.4 μg/mL with the reaction buffer. The solution was added to the black-bottom 384-well reaction plate ([…]). 10 μL of the buffer was added for the vehicle control group. The plate containing compounds in its wells was incubated at room temperature for 30 minutes.
The RLU data was read, the inhibition rate was calculated, and the IC50 value was calculated according to the fitting curve of concentration and inhibition rate.

[1] = rhCatC enzyme, substrate H-Gly-Arg-AMC, read-out: Biological activity IC50

Chain of rhCatC (P53634 25-134): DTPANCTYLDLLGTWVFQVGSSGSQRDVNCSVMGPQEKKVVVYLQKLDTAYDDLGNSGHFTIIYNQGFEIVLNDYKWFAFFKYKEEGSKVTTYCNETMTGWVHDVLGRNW
Chain of rhCatC (P53634 231-394): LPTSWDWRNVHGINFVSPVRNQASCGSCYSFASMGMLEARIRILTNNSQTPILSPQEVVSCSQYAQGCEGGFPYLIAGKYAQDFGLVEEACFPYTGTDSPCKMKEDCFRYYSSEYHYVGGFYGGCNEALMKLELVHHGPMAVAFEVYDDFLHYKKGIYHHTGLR
Chain of rhCatC (P53634 395-463): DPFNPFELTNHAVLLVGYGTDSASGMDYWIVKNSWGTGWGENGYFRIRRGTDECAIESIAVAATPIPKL

N#CC(Cc1ccc2c(c1)OCc1cc(F)ccc1-2)NC(=O)[C@@H]1CNCCCO1 (stereo partly drawn) [Compound 11, (2S)—N-(1-Cyano-2-(8-fluoro-6H-benzo[c]chromen-3-yl)ethyl)-1,4-oxazepane-2-carboxamide formate]
IC50 [1]: 74 nM

CC1(C)Oc2cc(C[C@@H](C#N)NC(=O)[C@@H]3CNCCCO3)c(F)cc2-c2ccc(C#N)cc21 [Compound 27, (S)—N—((S)-1-Cyano-2-(8-cyano-2-fluoro-6,6-dimethyl-6H-benzo[c]chromen-3-yl)ethyl)-1,4-oxazepane-2-carboxamide]
IC50 [1]: 23 nM

N#CC(Cc1ccc2c(c1)CCC2)NC(=O)[C@@H]1CNCCCO1 (stereo partly drawn) [Compound 5, (2S)—N-(1-Cyano-2-(2,3-dihydro-1H-inden-5-yl)ethyl)-1,4-oxazepane-2-carboxamide trifluoroacetate]
IC50 [1]: 3590 nM

N#C[C@H](Cc1cc2c(cc1F)-c1cc(C3COC3)c(F)cc1CO2)NC(=O)[C@@H]1CNCCCO1 [Compound 38A, (S)—N—((S)-1-Cyano-2-(2,8-difluoro-9-(oxetan-3-yl)-6H-benzo[c]chromen-3-yl)ethyl)-1,4-oxazepane-2-carboxamide]
IC50 [1]: 1.3 nM

N#CC(Cc1ccc2c(c1)CCC2)NC(=O)C1(N)CCOCC1 (centres unmarked) [Compound 6, 4-Amino-N-(1-cyano-2-(2,3-dihydro-1H-inden-5-yl)ethyl)tetrahydro-2H-pyran-4-carboxamide]
IC50 [1]: 56 nM

N#C[C@H](Cc1ccc2c(c1)COCC2)NC(=O)C1(N)CCOCC1 [Compound 52, (S)-4-Amino-N-(1-cyano-2-(isochroman-7-yl)ethyl)tetrahydro-2H-pyran-4-carboxamide trifluoroacetate]
IC50 [1]: 138 nM

N#CC(Cc1ccc2c(c1)OCc1ccc(C3CCNC3)cc1-2)NC(=O)C1(N)CCOCC1 (centres unmarked) [Compound 34, 4-Amino-N-(1-cyano-2-(9-(pyrrolidin-3-yl)-6H-benzo[c]chromen-3-yl)ethyl)tetrahydro-2H-pyran-4-carboxamide]
IC50 [1]: 6.2 nM

N#C[C@H](Cc1ccc2c(c1)CN(C(=O)c1ccc(F)cc1)C2)NC(=O)C1(N)CCOCC1 [Compound 55, (S)-4-Amino-N-(1-cyano-2-(2-(4-fluorobenzoyl)isoindolin-5-yl)ethyl)tetrahydro-2H-pyran-4-carboxamide]
IC50 [1]: 174 nM

N#C[C@H](Cc1ccc2c(c1)C(=O)N(c1ccccc1)C2)NC(=O)C1(N)CCOCC1 [Compound 50, (S)-4-Amino-N-(1-cyano-2-(3-oxo-2-phenylisoindolin-5-yl)ethyl)tetrahydro-2H-pyran-4-carboxamide]
IC50 [1]: 19 nM

N#C[C@H](Cc1ccc2c(c1)CN(c1ccccc1)C2=O)NC(=O)[C@@H]1CNCCCO1 [Compound 2, (S)—N—((S)-1-Cyano-2-(1-oxo-2-phenylisoindolin-5-yl)ethyl)-1,4-oxazepane-2-carboxamide]
IC50 [1]: 710 nM

CN1CCc2cc(C[C@@H](C#N)NC(=O)C3(N)CCOCC3)ccc2C1 [Compound 51, (S)-4-Amino-N-(1-cyano-2-(2-methyl-1,2,3,4-tetrahydroisoquinolin-6-yl)ethyl)tetrahydro-2H-pyran-4-carboxamide]
IC50 [1]: 39 nM

N#Cc1cccc(N2Cc3cc(C[C@@H](C#N)NC(=O)C4(N)CCOCC4)ccc3C2=O)c1 [Compound 47, (S)-4-Amino-N-(1-cyano-2-(2-(3-cyanophenyl)-1-oxoisoindolin-5-yl)ethyl)tetrahydro-2H-pyran-4-carboxamide formate]
IC50 [1]: 29 nM

N#C[C@H](Cc1ccc2c(c1)CCN(c1ccc(F)cc1)C2)NC(=O)C1(N)CCOCC1 [Compound 57, (S)-4-Amino-N-(1-cyano-2-(2-(4-fluorophenyl)-1,2,3,4-tetrahydroisoquinolin-6-yl)ethyl)tetrahydro-2H-pyran-4-carboxamide]
IC50 [1]: 48 nM

N#C[C@H](Cc1ccc2c(c1)oc1cc(F)ccc12)NC(=O)C1(N)CCOCC1 [Compound 42, (S)-4-Amino-N-(1-cyano-2-(7-fluorodibenzo[b,d]furan-3-yl)ethyl)tetrahydro-2H-pyran-4-carboxamide]
IC50 [1]: 5.7 nM

N#CC(Cc1ccc2c(c1)COc1cc(F)ccc1-2)NC(=O)[C@@H]1CNCCCO1 (stereo partly drawn) [Compound 15, (2S)—N-(1-Cyano-2-(3-fluoro-6H-benzo[c]chromen-8-yl)ethyl)-1,4-oxazepane-2-carboxamide]
IC50 [1]: 304 nM

CS(=O)(=O)c1ccc2c(c1)-c1cc(F)c(CC(C#N)NC(=O)[C@@H]3CNCCCO3)cc1OC2 (stereo partly drawn) [Compound 43, (2S)—N-(1-Cyano-2-(2-fluoro-9-(methylsulfonyl)-6H-benzo[c]chromen-3-yl)ethyl)-1,4-oxazepane-2-carboxamide]
IC50: 26 nM

N#C[C@H](Cc1ccc2c(c1)OCCC2)NC(=O)C1(N)CCOCC1 [Compound 10, (S)-4-Amino-N-(2-(chroman-7-yl)-1-cyanoethyl)tetrahydro-2H-pyran-4-carboxamide]
IC50 [1]: 74 nM

N#Cc1cnc2c(c1)COc1cc(CC(C#N)NC(=O)[C@@H]3CNCCCO3)c(F)cc1-2 (stereo partly drawn) [Compound 33, (2S)—N-(1-Cyano-2-(3-cyano-9-fluoro-5H-chromeno[4,3-b]pyridin-8-yl)ethyl)-1,4-oxazepane-2-carboxamide]
IC50 [1]: 85 nM

N#Cc1cc2c(cn1)-c1cc(F)c(C[C@@H](C#N)NC(=O)[C@@H]3CNCCCO3)cc1OC2 [Compound 19, (S)—N—((S)-1-Cyano-2-(3-cyano-9-fluoro-5H-chromeno[4,3-c]pyridin-8-yl)ethyl)-1,4-oxazepane-2-carboxamide]
IC50: 32 nM

N#C[C@H](Cc1ccc2c(c1)OCCN(c1ccc(F)cc1)C2=O)NC(=O)C1(N)CCOCC1 [Compound 44, (S)-4-Amino-N-(1-cyano-2-(4-(4-fluorophenyl)-5-oxo-2,3,4,5-tetrahydrobenzo[f][1,4]oxazepin-8-yl)ethyl)tetrahydro-2H-pyran-4-carboxamide]
IC50 [1]: 39 nM

N#C[C@H](Cc1ccc2c(c1)OCCN(c1ccc(F)cc1)C2)NC(=O)C1(N)CCOCC1 [Compound 53, (S)-4-Amino-N-(1-cyano-2-(4-(4-fluorophenyl)-2,3,4,5-tetrahydrobenzo[f][1,4]oxazepin-8-yl)ethyl)tetrahydro-2H-pyran-4-carboxamide]
IC50 [1]: 196 nM

N#CC(Cc1ccc2c(c1)CCCC2)NC(=O)C1(N)CCOCC1 (centres unmarked) [Compound 4, 4-Amino-N-(1-cyano-2-(5,6,7,8-tetrahydronaphthalen-2-yl)ethyl)tetrahydro-2H-pyran-4-carboxamide]
IC50 [1]: 54 nM

N#CC(Cc1ccc2c(c1)CCCC2)NC(=O)[C@@H]1CNCCCO1 (stereo partly drawn) [Compound 3, (2S)—N-(1-Cyano-2-(5,6,7,8-tetrahydronaphthalen-2-yl)ethyl)-1,4-oxazepane-2-carboxamide trifluoroacetate]
IC50 [1]: 4250 nM

N#Cc1ccc(C(=O)N2Cc3ccc(C[C@@H](C#N)NC(=O)C4(N)CCOCC4)cc3C2)cc1 [Compound 46, (S)-4-Amino-N-(1-cyano-2-(2-(4-cyanobenzoyl)isoindolin-5-yl)ethyl)tetrahydro-2H-pyran-4-carboxamide]
IC50 [1]: 54 nM

CN1CCc2cc(C[C@@H](C#N)NC(=O)[C@@H]3CNCCCO3)ccc2C1 [Compound 9, (S)—N—((S)-1-Cyano-2-(2-methyl-1,2,3,4-tetrahydroisoquinolin-6-yl)ethyl)-1,4-oxazepane-2-carboxamide]
IC50 [1]: 1740 nM

N#Cc1ccc(N2Cc3cc(C[C@@H](C#N)NC(=O)C4(N)CCOCC4)ccc3C2=O)cc1 [Compound 45, (S)-4-Amino-N-(1-cyano-2-(2-(4-cyanophenyl)-1-oxoisoindolin-5-yl)ethyl)tetrahydro-2H-pyran-4-carboxamide]
IC50 [1]: 72 nM

N#C[C@H](Cc1ccc2c(c1)CN(c1ccccc1)C2=O)NC(=O)C1(N)CCOCC1 [Compound 1, (S)-4-Amino-N-(1-cyano-2-(1-oxo-2-phenylisoindolin-5-yl)ethyl)tetrahydro-2H-pyran-4-carboxamide]
IC50 [1]: 42 nM

N#C[C@H](Cc1ccc2c(c1)CN(c1ccc(F)cc1)C2)NC(=O)C1(N)CCOCC1 [Compound 54, (S)-4-Amino-N-(1-cyano-2-(2-(4-fluorophenyl)isoindolin-5-yl)ethyl)tetrahydro-2H-pyran-4-carboxamide]
IC50 [1]: 28 nM

N#C[C@@H](Cc1cc2c(cc1F)-c1cc(C3COC3)c(F)cc1CO2)NC(=O)[C@@H]1CNCCCO1 [Compound 38B, (S)—N—((R)-1-Cyano-2-(2,8-difluoro-9-(oxetan-3-yl)-6H-benzo[c]chromen-3-yl)ethyl)-1,4-oxazepane-2-carboxamide]
IC50 [1]: 76 nM

Cn1c(=O)oc2ccc(N3Cc4cc(C[C@@H](C#N)NC(=O)C5(N)CCOCC5)ccc4C3=O)cc21 [Compound 48, (S)-4-Amino-N-(1-cyano-2-(2-(3-methyl-2-oxo-2,3-dihydrobenzo[d]oxazol-5-yl)-1-oxoisoindolin-5-yl)ethyl)tetrahydro-2H-pyran-4-carboxamide]
IC50 [1]: 29 nM

N#CC(Cc1ccc2c(c1)CCOc1cc(F)ccc1-2)NC(=O)C1(N)CCOCC1 (centres unmarked) [Compound 39, 4-Amino-N-(1-cyano-2-(3-fluoro-6,7-dihydrodibenzo[b,d]oxepin-9-yl)ethyl)tetrahydro-2H-pyran-4-carboxamide]
IC50 [1]: 46 nM

N#C[C@H](Cc1ccc2c(c1)CCN(c1ccccc1)C2=O)NC(=O)C1(N)CCOCC1 [Compound 49, (S)-4-Amino-N-(1-cyano-2-(1-oxo-2-phenyl-1,2,3,4-tetrahydroisoquinolin-6-yl)ethyl)tetrahydro-2H-pyran-4-carboxamide]
IC50 [1]: 57 nM
